Among the data in ChEMBL document CHEMBL1268880, “Investigation of 4-piperidinols as novel H3 antagonists” (Bioorg Med Chem Lett, 2010) are IC50, inhibition and Ratio IC50 values, retold here.

For data set [1], the target named is Histamine H3 receptor (Mus musculus, UniProt P58406). Put plainly: Antagonist activity against mouse histamine H3 receptor expressed in human HT1080 cells assessed as inhibition of (R)-alpha-methylhistamine-induced increase in intracellular calcium level by FLIPR assay. The data set is classed as functional, cell-based, HT-1080. For orientation: Calcium assays in cells follow changes in intracellular calcium, usually with a dye or a luminescent sensor.

For data set [2], the target named is Histamine H3 receptor (Homo sapiens, UniProt Q9Y5N1). Briefly: Antagonist activity against human histamine H3 receptor expressed in human HT1080 cells assessed as inhibition of (R)-alpha-methylhistamine-induced increase in intracellular calcium level by FLIPR assay. The data set is classed as functional, cell-based, HT-1080.
Data set [3] deals with T1, hERG (KCNH2) (Homo sapiens, UniProt Q12809). Briefly: Inhibition of human ERG at 10 uM.
The target of data set [4] is T1, hERG (KCNH2). Put plainly: Inhibition of human ERG at 50 uM.
Data set [5] is described as follows: Selectivity ratio of IC50 for mouse histamine H3 receptor to IC50 for human histamine H3 receptor.

Sequence of Histamine H3 receptor (Mus musculus, UniProt P58406) (P58406 whole entry): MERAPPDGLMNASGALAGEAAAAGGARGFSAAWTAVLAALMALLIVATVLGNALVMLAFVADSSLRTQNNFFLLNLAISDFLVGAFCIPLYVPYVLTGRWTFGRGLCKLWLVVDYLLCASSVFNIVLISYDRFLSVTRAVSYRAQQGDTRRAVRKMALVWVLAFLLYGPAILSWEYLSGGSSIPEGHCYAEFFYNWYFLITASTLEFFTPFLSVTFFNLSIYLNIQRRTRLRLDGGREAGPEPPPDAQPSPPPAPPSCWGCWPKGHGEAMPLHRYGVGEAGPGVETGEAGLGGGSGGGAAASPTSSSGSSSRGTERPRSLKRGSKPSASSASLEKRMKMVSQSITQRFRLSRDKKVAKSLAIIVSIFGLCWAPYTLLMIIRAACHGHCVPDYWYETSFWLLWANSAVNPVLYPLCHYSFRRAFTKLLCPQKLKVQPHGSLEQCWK
Sequence of Histamine H3 receptor (Homo sapiens, UniProt Q9Y5N1) (Q9Y5N1 whole entry): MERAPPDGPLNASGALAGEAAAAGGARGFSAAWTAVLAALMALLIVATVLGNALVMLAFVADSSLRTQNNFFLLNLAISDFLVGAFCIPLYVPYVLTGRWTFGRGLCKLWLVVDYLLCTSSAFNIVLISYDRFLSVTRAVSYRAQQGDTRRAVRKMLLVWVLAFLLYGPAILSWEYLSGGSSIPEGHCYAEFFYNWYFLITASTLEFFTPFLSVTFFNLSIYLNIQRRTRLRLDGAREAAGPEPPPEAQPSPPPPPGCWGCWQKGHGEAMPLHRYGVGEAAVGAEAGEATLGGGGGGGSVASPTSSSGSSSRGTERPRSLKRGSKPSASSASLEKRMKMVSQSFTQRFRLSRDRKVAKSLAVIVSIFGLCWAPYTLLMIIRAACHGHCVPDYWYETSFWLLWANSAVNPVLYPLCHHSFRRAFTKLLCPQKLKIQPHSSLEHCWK
T1 sequence (Q12809 whole entry): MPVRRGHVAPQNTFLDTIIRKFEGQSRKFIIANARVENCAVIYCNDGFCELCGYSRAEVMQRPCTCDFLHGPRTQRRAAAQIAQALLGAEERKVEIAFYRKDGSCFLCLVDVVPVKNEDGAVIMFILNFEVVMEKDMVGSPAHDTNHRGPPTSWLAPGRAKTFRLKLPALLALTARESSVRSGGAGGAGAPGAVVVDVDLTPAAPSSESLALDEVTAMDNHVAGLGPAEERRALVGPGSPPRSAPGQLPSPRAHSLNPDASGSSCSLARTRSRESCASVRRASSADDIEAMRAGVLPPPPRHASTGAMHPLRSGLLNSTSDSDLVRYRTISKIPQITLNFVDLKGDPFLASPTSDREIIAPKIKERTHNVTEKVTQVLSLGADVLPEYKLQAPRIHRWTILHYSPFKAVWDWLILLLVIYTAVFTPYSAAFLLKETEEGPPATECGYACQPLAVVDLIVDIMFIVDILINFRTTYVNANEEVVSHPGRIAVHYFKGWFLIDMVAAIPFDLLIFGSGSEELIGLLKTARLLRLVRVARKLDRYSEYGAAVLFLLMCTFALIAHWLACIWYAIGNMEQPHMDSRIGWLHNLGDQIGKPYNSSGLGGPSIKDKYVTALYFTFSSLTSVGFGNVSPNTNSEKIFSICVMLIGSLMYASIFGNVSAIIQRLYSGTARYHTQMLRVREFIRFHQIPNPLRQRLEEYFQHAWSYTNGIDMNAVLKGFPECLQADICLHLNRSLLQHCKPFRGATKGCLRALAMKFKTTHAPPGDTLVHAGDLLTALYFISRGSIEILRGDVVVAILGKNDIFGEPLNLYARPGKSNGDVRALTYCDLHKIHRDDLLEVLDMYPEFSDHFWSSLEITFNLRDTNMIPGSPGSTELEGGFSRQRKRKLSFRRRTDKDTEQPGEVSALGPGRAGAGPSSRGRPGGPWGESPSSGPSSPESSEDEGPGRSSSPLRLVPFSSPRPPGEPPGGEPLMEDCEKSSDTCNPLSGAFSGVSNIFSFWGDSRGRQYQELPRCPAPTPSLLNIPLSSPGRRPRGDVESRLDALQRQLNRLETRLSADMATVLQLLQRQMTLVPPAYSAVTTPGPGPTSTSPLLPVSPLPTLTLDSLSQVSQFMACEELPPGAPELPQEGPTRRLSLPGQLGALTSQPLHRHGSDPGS

As a reminder, the IC50 is the point on the concentration scale where inhibition reaches its midpoint. With `CC1CC(O)(C#Cc2ccc3ccccc3c2)C(C)CN1C` (racemic), the IC50 in data set [1] was 810 nM; in data set [2], 84 nM.
As usually defined, the inhibition is how much of the control response was suppressed. Low readings indicate a response near the control, high ones a response far below the control. `CC1CC(O)(/C=C/c2cccc3ccccc23)C(C)CN1C` (racemic): the IC50 in data set [1] was determined as 570 nM; in data set [2], 20 nM. The molecule further came in with an inhibition at 10 µM in data set [3] of 20%.
Consider `CC1CN2CCCC2CC1(O)C#Cc1cccc2ccccc12` (racemic), for which the half-maximal inhibitory concentration (IC50) in data set [1] is 280 nM; in data set [2], 5 nM. Further, in data set [3], testing at 10 µM gave an inhibition of 23%.
With `C[C@@H]1C[C@@](O)(CCc2cccc3ccccc23)[C@@H](C)CN1C`, the 50% inhibitory concentration (IC50) in data set [1] turned out to be 85 nM; in data set [2], 2 nM. In data set [3], at 10 µM the inhibition was 16%.
For `CC1CC(O)(C#Cc2cccc3cccnc23)C(C)CN1C` (racemic), the results for the half-inhibitory concentration (IC50) in data set [1] and in data set [2] were 9730 nM and 709 nM, respectively.
Regarding `C[C@@H]1CN(C)[C@@H](C)C[C@]1(O)C#Cc1cccc2ccccc12`, the results for the IC50 in data set [1] and in data set [2] were 1320 nM and 41 nM, respectively.
With `NC(=NCc1ccc(Cl)cc1)SCCCc1cnc[nH]1` [CLOBENPROPIT], the IC50 in data set [1] came out at 1 nM.
For `CC(=O)OC1(C#Cc2cccc3ccccc23)CC(C)N(C)CC1C` (racemic), the IC50 in data set [1] was over 10000 nM; in data set [2] it was 5510 nM.
The corresponding values for `CC1CC(O)(C#Cc2cccc3ccccc23)C(C)CN1C` (racemic) are 280 nM and 11 nM.
Consider `C[C@@H]1C[C@@](O)(C#Cc2cccc3ccccc23)[C@@H](C)CN1C`, for which the inhibition at 50 µM in data set [4] came out at 15%. In data set [5], the Ratio IC50 came to 13. In addition, the values for the IC50 in data set [1] and in data set [2] were 119 nM and 9 nM, respectively.
Take `CC1CC(O)(CCc2ccc3ccccc3c2)C(C)CN1C` (racemic): the IC50 in data set [1] turned out to be 122 nM; in data set [2] it was 2 nM. The inhibition at 10 µM in data set [3] was determined as 0%.
`CC1CC(O)(C#Cc2cccc3ncccc23)C(C)CN1C` (racemic): the IC50 in data set [1] was determined as 690 nM; in data set [2], 12 nM. In addition, testing at 10 µM in data set [3] gave an inhibition of 3%.
For the molecule `CC1CC(O)(CCc2cccc3ccccc23)C(C)CN1C` (racemic), the IC50 in data set [1] is 480 nM; in data set [2], 17 nM. For the same molecule, the inhibition at 10 µM in data set [3] worked out at 15%.
Take `CC1CN2CCCC2CC1(O)CCc1cccc2ccccc12` (racemic): the results for the IC50 in data set [1] and in data set [2] were 345 nM and 14 nM, respectively.
